How the values were obtained:
[1] = test system: stratum corneum barrier in reconstructed human epidermis (RHE); experiment: Toluidine blue diffusion assay in RHE with SDS; type: cell-based; parameters: key: 4: Strong; 3: Clear; 2: Moderate; 1: Slight; details: 24 h, SDS 0.02 mg/ml on top layer, peptide 50 μg/ml + SDS
Method: The SkinEthic human tissue models (EpiSkin) are removed from their agarose-nutrient solution in the multiwell plate immediately after arrival and are placed in a 6-well plate in which each well has previously been filled with SkinEthic Growth Medium (EpiSkin). After overnight incubation at 37° C., 5% CO2, the top layer of tissue model is treated with 100 μl of a 50 μg/ml solution of peptide Ac-Glu-Glu-Met-Gln-Arg-Arg-Ala-NH2 (PEP-2) in a 0.02 mg/ml sodium dodecyl sulfate (SDS, Sigma) solution in growth medium and dermal side of tissue model is treated with 1 ml of a 50 μg/ml solution of the same peptide in growth medium. The top layer and dermal side of a tissue model is treated with growth medium as basal condition. In another tissue model, its top layer is treated with a 0.02 mg/ml SDS solution in growth medium while its dermal side is treated with growth medium alone, both in absence of peptide, for its use as a positive control. All incubations are performed at 37° C. and 5% CO2 for 24 h.
After the 24-hours treatment, the top layer of tissue models are further treated with 200 μl of methanol for 2 min at room temperature and, after that, they are rinsed twice with 200 μl of phosphate-buffered saline (PBS, Sigma). […] At least 12 representative images from each condition are collected and scored according to the ranking described in Table 14. […]

[2] = test system: tight junction (TJ) barrier in reconstructed human epidermis (RHE); experiment: TJ permeability assay, biotin dye penetration in RHE with SDS; type: cell-based; details: 24 hours
Method: TJ permeability assay using surface biotinylation technique was performed in incubated reconstructed human epidermis (RHE) with EZ-UN Sulfo-NHS-LC-LC-Biotin from the dermal side. The aim of this study is to investigate the ability of peptides of the invention to enhance the barrier function by inhibiting diffusion of the dye through stratum granulosum in presence of sodium dodecyl sulfate (SDS) which causes functional deterioration of TJs.
SkinEthic human tissue models (EpiSkin) are removed from their agarose-nutrient solution in a multiwell plate immediately after arrival and are placed in a 6-well plate in which each well has previously been filled with SkinEthic Growth Medium (EpiSkin). After overnight incubation at 37° C., 5% CO2, tissue models are treated with 50 μg/ml of peptide Ac-Glu-Glu-Met-Gln-Arg-Arg-Ala-NH2 (PEP-2) and a 0.02 mg/ml sodium dodecyl sulfate (SDS, Sigma) solution in growth medium, (1 ml/well). […]
Microscopical observations are performed with a Zeiss fluorescence microscope and photographs of each condition are taken with the associated camera. Fluorescence images of biotin are quantified as the product of its area and the intensity mean value of channel ‘EGFP’ Green (excitation: 488 nm and emission: 509 nm) and normalized by basal conditions. At least 12 representative images from each condition are collected and analyzed with the ZEN software (Zeiss). […]

[3] = test system: Nuclear Factor Kappa B subunit 1 (NFKB1); experiment: Innate immune response gene expression in HEKa, real time PCR array; type: cell-based, human; details: 50 μg/ml, 24 h
Method: (§1) HEKa cells (Life Technologies) are seeded at 6.0×10^5 cells/well in 6-well plates and incubated in culture medium Epillfe™ with defined Growth Supplement (EDGS, Life Technologies), at 37° C. in a water-saturated atmosphere of 95% air and 5% CO2. After 24 hours of incubation under these conditions, medium is removed and cells are incubated with 50 μg/ml (w/v) of a peptide of the invention (see Table 16) in fresh culture medium keeping two wells where HEKa cells are incubated with medium only (basal conditions) at 37° C. and 5% CO2.
After 24 h of incubation, the cells are lysed directly in the wells following the protocol described on the RNeasy™ Mini kit (Qiagen) according to the manufacturer's protocol. The lysed cells are homogenized and the RNases are inactivated. The genomic DNA is removed from the samples by using gDNA Eliminator spin columns (Qiagen). Then the samples are passed through special RNA binding columns (Qiagen) and, after several microcentrifugation washes to eliminate contaminants and impurities, the purified RNA is eluted with 50 μl of ultrapure water. Quantification and analysis of purity of RNA samples are performed after RNA elution with a biophotometer (Eppendorf). 1 μg of high-quality RNA is retrotranscribed with iScript™ advanced (BioRad) in a final volume of 20 μl·Complete reaction mix is incubated in a thermal cycler (Eppendorf) at 42° C. for 30 minutes, and the reactions are stopped at 85° C. for 5 minutes. Complementary DNA is amplified by qPCR in a real-time PCR thermocycler (BioRad) using SYBR®Green supermix (BioRad) and a customized plate for use with SYBR®Green (BioRad). SYBR®Green binds to double-stranded DNA molecules and emits fluorescence which is quantified and is proportional to the amount of the product in the PCR reaction. Cycling conditions in BioRad CFX96™ instrument are 95° C. for 3 minutes, followed by 40 cycles of denaturing at 95° C. for 5 seconds, annealing and elongation at 60° C. for 30 seconds. GAPDH (Glyceraldehyde 3-phosphate dehydrogenase), TBP (TATA box binding protein) and HRPT1 (hypoxanthine phosphoribosyltransferase 1) are used as endogenous controls. Fold change relative to the expression of the sample genes and reference genes is calculated using normalized expression (ΔΔ(Ct)) method with default threshold values using CFX Manager Software (BioRad).
(§2) Genes analyzed are Chemokine (C-C motif) Ligand 5 (CCL5), Myeloid Differentiation primary response gene 88 (MyD88), Nuclear Factor Kappa B subunit 1 (NFKB1) and interferon Regulatory Factor 3 (IRF3).

[4] = test system: interferon Regulatory Factor 3 (IRF3); experiment: as above; details: 50 μg/ml, 24 h
Method: as §1
After 24 h of incubation, the cells are lysed directly in the wells following the protocol described on the RNeasy™ Mini kit (Qiagen) according to the manufacturer's protocol. […] Quantification and analysis of purity of RNA samples are performed after RNA elution with a biophotometer (Eppendorf). […] SYBR®Green binds to double-stranded DNA molecules and emits fluorescence which is quantified and is proportional to the amount of the product in the PCR reaction. […] Fold change relative to the expression of the sample genes and reference genes is calculated using normalized expression (ΔΔ(Ct)) method with default threshold values using CFX Manager Software (BioRad).
as §2

[5] = test system: Staphylococcus epidermidis; experiment: Adherence of Staphylococcus epidermidis in keratinocytes (HaCaT) in competition with S. aureus bioparticles; type: cell-based; details: 50 μg/ml, 24 h, basal = 0
Method: After that treatment, cells are washed with phosphate-buffered saline (PBS, Sigma) and are then incubated with a solution of Staphylococcus epidermidis (ATCC®12228™, Culture Collections) treated with green-fluorescence calcein AM (Life technologic) and Alexa Fluor 594™ Bioparticles Staphylococcus aureus (ThermoFisher) in PBS for 30 minutes at 37° C. and protected from light. At the end of the incubation period, cells are washed with PBS and fixed in 4% (v/v) paraformaldehyde (PFA, Sigma) for 30 minutes. After rinsing with PBS, the nuclei are stained with Hoechst 33342, trihydrochloride trihydrate (ThermoFisher) in PBS for 10 minutes before analysis.
Cellular imaging is performed by fluorescence microscopy using the Operetta® High Content Imaging System (PerkinElmer). From each fluorescence image, Staphylococcus epidermidis is quantified as a number of spots and normalized against the number of keratinocyte nuclei and the total bacteria number (understood as the addition of detected S. epidermidis spots and S. aureus bioparticles). Each value obtained is normalized respect to basal conditions (non-treated keratinocytes). An image is taken in three different fields per well. 12 representative images from each condition are analyzed with Harmony software (PerkinElmer).
The normalized percentage of Staphylococcus epidermidis respect to basal conditions in treated keratinocytes is represented in Table 17.

[6] = test system: Reconstructed Human Epidermis (RHE); experiment: Lipidomic profile (UPLC-MS) of in vitro epidermal model; type: cell-based; details: 50 μg/ml, 24 hours, vs basal conditions
Method: The SkinEthic human tissue models (EpiSkin™) are removed from their agarose-nutrient solution in the multiwell plate immediately after arrival and are placed in a 6-well plate in which each well has previously been filled with SkinEthic Growth Medium (EpiSkin™). After overnight incubation at 37° C., 5% CO2, Reconstructed Human Epidermis (RHE) are treated with 50 μg/ml of peptides Ac-Glu-Glu-Met-Gln-Arg-Arg-NH2 (PEP-1), Ac-Glu-Glu-Met-Gln-Arg-Arg-Ala-NH2 (PEP-2) or Ac-Glu-Glu-Met-Gln-Arg-Arg-Ala-Asp-NH2 (PEP-3) or medium (basal conditions) for 24 hours at 37° C. and 5% CO2. After the 24 hours treatment, RHE are frozen and stored at −20° C. Each treatment is applied to five RHE per condition.
Epidermal membrane model samples are thawed and removed from the inserts using a scalpel and transferred to homogenization tubes. Samples are mixed with sodium chloride (50 mM) and chloroform/methanol (2/1) (v:v) and homogenized. The extraction solvent is spiked with metabolites not detected in unspiked human serum extracts. After homogenizing the samples, extracts are incubated for 1 hour at −20° C. and centrifuged at 18,000×g for 15 minutes. The organic phase is then collected and dried under vacuum. Dried extracts are finally reconstituted in acetonitrile/isopropanol (1/1) (v:v), centrifuged at 18,000×g for 5 minutes and transferred to vials for UPLCs-MS analysis.
All data are processed using the TargetLynx™ application manager for MassLynx™ 4.1 software (Waters Corp., Milford, USA). A set of predefined retention time, mass-to-charge ratio pairs, Rt-m/z, corresponding to metabolites included in the analysis are fed into the program. Associated extracted ion chromatograms (mass tolerance window=0.05 Da) are then peak-detected and noise-reduced in both the LC and MS domains such that only true metabolite related features are processed by the software. A list of chromatographic peak areas is then generated for each sample injection and value respect to basal conditions is calculated.
Average of five values obtained for each peptide in relation to those obtained for basal conditions (without peptide in the medium) are shown in Table 11.

[7] = test system: Claudin 1 (CLDN1); experiment: Tight junction gene expression in HEKa, real time PCR array; details: 50 μg/ml, 24 hours
Method: (§3) HEKa cells (Life Technologies) are seeded at 6.0×10^5 cells/well in 6-well plates and incubated in culture medium Epilife™ with defined Growth Supplement (EDGS, Life Technologies) at 37° C. in a water-saturated atmosphere of 95% air and 5% CO2. After 24 hours of incubation under these conditions, medium is removed and cells are incubated with 50 μg/ml of a peptide of the invention (see Table 12) in fresh culture medium, except for two wells where HEKa cells are incubated with medium only (basal conditions), at 37° C. and 5% CO2.
(§4) After 24 hours of incubation, the cells are lysed directly in the wells following the protocol described on the RNeasy™ Mini kit (Qiagen) according to the manufacturer's protocol. The lysed cells are homogenized and the Rnases are inactivated. The genomic DNA is removed from the samples by using gDNA Eliminator spin columns (Qiagen). […] Quantification and analysis of purity of RNA samples are performed after RNA elution with a biophotometer (Eppendorf). […] SYBR Green binds to double-stranded DNA molecules and emits fluorescence which is quantified and is proportional to the amount of the product in the PCR reaction. […] Fold change relative to the expression of the sample genes and reference genes is calculated using normalized expression (ΔΔ(Ct)) method with default threshold values using CFX Manager Software (BioRad).

[8] = test system: Tight Junction Protein 1 (TJP1); experiment: as above; details: 50 μg/ml, 24 hours
Method: as §3, §4

CCCCCCCCCCCCOS(=O)(=O)[O-].[Na+] [SDS, sodium dodecyl sulfate, reference compound]
Total score (Toluidine Blue staining) [1]: 4
Fold change with respect to basal condition (biotin fluorescence) ([2]; treatment from dermal side): 1.90

Ac-EQMQRR-NH2 [PEP-50, Ac-Glu-Gln-Met-Gln-Arg-Arg-NH2]
NFKB1 fold induction respect to basal conditions [3]: 2.25
IRF3 fold induction respect to basal conditions [4]: 2.25
S. epidermidis (%), normalized percentage respect to basal conditions [5]: 4.14%

Ac-EEMQRRA-NH2 [PEP-2, Ac-Glu-Glu-Met-Gln-Arg-Arg-Ala-NH2]
Cer_AP48 N-(alpha-hydroxyacyl) phytosphingosines [6]: 1.37 fold change
Cer_NP48 N-acyl phytosphingosines [6]: 1.24 fold change
Cer_NP49 N-acyl phytosphingosines [6]: 1.23 fold change
Cer_NP50 N-acyl phytosphingosines [6]: 1.23 fold change
Cer_NP51 N-acyl phytosphingosines [6]: 1.19 fold change
Cer_NS50 N-acyl sphingosines [6]: 1.18 fold change
Cer_NS51 N-acyl sphingosines [6]: 1.13 fold change
Cer_NS52 N-acyl sphingosines [6]: 1.37 fold change
Cer_NdS47 N-acyl dihydrosphingosines [6]: 1.10 fold change
Cer_NdS48 N-acyl dihydrosphingosines [6]: 1.23 fold change
Cer_NdS49 N-acyl dihydrosphingosines [6]: 1.46 fold change
Cer_NdS50 N-acyl dihydrosphingosines [6]: 1.50 fold change
NFKB1 fold induction respect to basal conditions [3]: 2.19
S. epidermidis (%), normalized percentage respect to basal conditions [5]: 24.69%
Total score (Toluidine Blue staining) [1]: 2
penetration of biotin to stratum corneum (result in words) ([2]; peptide 50 μg/ml with 0.02 mg/ml SDS): able to strengthen the tight junction (TJ) barrier

Ac-EEMQRRED-NH2 [PEP-23, Ac-Glu-Glu-Met-Gln-Arg-Arg-Glu-Asp-NH2]
CLDN1 fold induction respect to basal conditions [7]: 2.58
NFKB1 fold induction respect to basal conditions [3]: 2.58
S. epidermidis (%), normalized percentage respect to basal conditions [5]: 20.10%

H-EEMQRH-NH2 [PEP-57, H-Glu-Glu-Met-Gln-Arg-His-NH2]
NFKB1 fold induction respect to basal conditions [3]: 2.49
IRF3 fold induction respect to basal conditions [4]: 2.49
S. epidermidis (%), normalized percentage respect to basal conditions [5]: 13.57%

Ac-EEMQRR-OH [PEP-61, Ac-Glu-Glu-Met-Gln-Arg-Arg-OH]
TJP1 fold induction respect to basal conditions [8]: 1.71
NFKB1 fold induction respect to basal conditions [3]: 1.71
S. epidermidis (%), normalized percentage respect to basal conditions [5]: 3.08%
